In patent publication US12617797B2, “Substituted pyrazolo [1,5-a]pyrimidines having multimodal activity against pain” (ESTEVE PHARMACEUTICALS, S.A., priority 2020, dated 2026):

Legend:
Human σ1 receptor = target: T1, Human σ1 receptor (Homo sapiens, UniProt Q99720); test: Human σ1 receptor radioligand assay ([3H](+)-pentazocine binding, transfected HEK-293 membranes); conditions: binding to σ1 receptor expressed as Ki; + also covers inhibition between 1% and 50%; read-out: σ-1 binding
T1 construct: expressed in transfected cells; host or cells: HEK-293
T1 sequence (Q99720 whole entry): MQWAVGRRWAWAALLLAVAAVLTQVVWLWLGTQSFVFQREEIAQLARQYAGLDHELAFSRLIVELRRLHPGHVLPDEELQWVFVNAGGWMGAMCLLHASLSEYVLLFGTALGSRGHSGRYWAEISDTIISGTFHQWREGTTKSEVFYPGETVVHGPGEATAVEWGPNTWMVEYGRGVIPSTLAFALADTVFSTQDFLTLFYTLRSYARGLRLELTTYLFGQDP
How it was run: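 Ki was derived from five test concentrations, or % inhibition was measured at a single 1 or 10 μM dose, against 5 nM [3H](+)-pentazocine. Incubation was 120 min at 37° C in 50 mM Tris-HCl pH 8 with 7 μg HEK-293 membranes, and 10 μM haloperidol set non-specific binding. Bound radioactivity was counted after filtration.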

[1] = target: Human α2δ-1 subunit of Cav2.2 calcium channel (Homo sapiens, UniProt P54289); test: Human α2δ-1 subunit of Cav2.2 calcium channel assay ([3H]-gabapentin binding); conditions: binding to the α2δ-1 subunit of voltage-gated calcium channels expressed as Ki; + also covers inhibition between 1% and 50%
Sequence of Human α2δ-1 subunit of Cav2.2 calcium channel (P54289 25-1103): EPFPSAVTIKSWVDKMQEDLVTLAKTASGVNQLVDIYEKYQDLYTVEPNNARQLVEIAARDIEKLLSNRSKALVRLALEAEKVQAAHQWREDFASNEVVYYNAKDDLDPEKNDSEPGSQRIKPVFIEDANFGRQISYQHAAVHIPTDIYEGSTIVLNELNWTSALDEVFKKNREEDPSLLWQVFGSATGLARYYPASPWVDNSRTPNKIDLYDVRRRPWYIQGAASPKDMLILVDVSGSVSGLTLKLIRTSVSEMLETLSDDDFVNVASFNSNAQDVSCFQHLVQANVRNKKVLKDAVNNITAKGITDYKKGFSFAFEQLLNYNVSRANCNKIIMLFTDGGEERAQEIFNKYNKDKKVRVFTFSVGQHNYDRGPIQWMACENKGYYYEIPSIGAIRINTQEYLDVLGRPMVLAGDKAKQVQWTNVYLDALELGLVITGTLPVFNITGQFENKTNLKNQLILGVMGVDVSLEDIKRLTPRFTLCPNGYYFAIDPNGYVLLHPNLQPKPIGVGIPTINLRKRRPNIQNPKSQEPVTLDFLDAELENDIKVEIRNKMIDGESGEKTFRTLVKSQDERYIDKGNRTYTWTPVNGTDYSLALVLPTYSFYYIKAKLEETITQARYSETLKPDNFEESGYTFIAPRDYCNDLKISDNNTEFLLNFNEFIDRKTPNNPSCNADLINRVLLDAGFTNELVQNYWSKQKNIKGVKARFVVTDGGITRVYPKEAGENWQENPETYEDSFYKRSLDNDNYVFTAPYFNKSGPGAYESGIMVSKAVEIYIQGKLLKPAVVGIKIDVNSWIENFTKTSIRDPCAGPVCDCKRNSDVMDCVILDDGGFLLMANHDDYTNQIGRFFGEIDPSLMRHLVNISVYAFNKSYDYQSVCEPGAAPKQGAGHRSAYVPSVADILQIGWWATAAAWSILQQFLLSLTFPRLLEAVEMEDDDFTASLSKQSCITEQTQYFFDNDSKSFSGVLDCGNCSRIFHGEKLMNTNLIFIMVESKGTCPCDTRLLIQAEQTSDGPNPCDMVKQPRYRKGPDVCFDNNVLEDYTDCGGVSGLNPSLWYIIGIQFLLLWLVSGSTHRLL
How it was run: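 Displacement of 15 nM [3H]-gabapentin from human α2δ-1-enriched membranes (Hepes-KOH 10 mM, pH 7.4; 27 °C, 60 min) read by filter binding and radioactivity counting. Values are single-point % inhibition (1 or 10 μM) or five-point Ki; 10 μM pregabalin sets NSB.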

Row | SMILES | Ki (Human σ1 receptor) [nM] | Ki [1] [nM]
1 | Cc1nn2c(C3CCCN(Cc4ccc(Cl)cc4)C3)ccnc2c1-c1ccnc(CO)c1 (centres unmarked) [Example 134, (4-(7-(1-(4-Chlorobenzyl)piperidin-3-yl)-2-methylpyrazolo[1,5-a]pyrimidin-3-yl)pyridin-2-yl)methanol] | 500 to 1000 | > 5000
2 | Cc1nn2c(C3CCCN(Cc4ccc(Cl)cc4)C3)ccnc2c1-c1ccc(CO)nc1 (centres unmarked) [Example 135, (5-(7-(1-(4-Chlorobenzyl)piperidin-3-yl)-2-methylpyrazolo[1,5-a]pyrimidin-3-yl)pyridin-2-yl)methanol] | > 1000 | > 5000
3 | CCOc1cc(-c2c(C)nn3c(C4CCCN(Cc5ccc(Cl)cc5)C4)ccnc23)ccn1 (centres unmarked) [Example 136, 7-(1-(4-Chlorobenzyl)piperidin-3-yl)-3-(2-ethoxypyridin-4-yl)-2-methylpyrazolo[1,5-a]pyrimidine] | > 1000 | > 5000
4 | Cc1nn2c(C3CCCN(Cc4ccc(Cl)cc4)C3)ccnc2c1-c1ccnc(OCC2CC2)c1 (centres unmarked) [Example 137, 7-(1-(4-Chlorobenzyl)piperidin-3-yl)-3-(2-(cyclopropylmethoxy)pyridin-4-yl)-2-methylpyrazolo[1,5-a]pyrimidine] | > 1000 | > 5000
5 | Cc1nn2c(C3CCCN(Cc4ccc(Cl)cc4)C3)ccnc2c1-c1cncn1C (centres unmarked) [Example 138, 7-(1-(4-Chlorobenzyl)piperidin-3-yl)-2-methyl-3-(1-methyl-1H-imidazol-5-yl)pyrazolo[1,5-a]pyrimidine] | > 1000 | > 5000
6 | Cc1nn2c(C3CCCN(Cc4ccc(Cl)cc4)C3)ccnc2c1-c1ccncn1 (centres unmarked) [Example 139, 7-(1-(4-Chlorobenzyl)piperidin-3-yl)-2-methyl-3-(pyrimidin-4-yl)pyrazolo[1,5-a]pyrimidine] | > 1000 | > 5000
7 | Cc1nn2c(C3CCCN(Cc4ccc(Cl)cc4)C3)ccnc2c1-c1ccnc(N)n1 (centres unmarked) [Example 140, 4-(7-(1-(4-Chlorobenzyl)piperidin-3-yl)-2-methylpyrazolo[1,5-a]pyrimidin-3-yl)pyrimidin-2-amine] | > 1000 | 500 to 5000
8 | Cc1nn2c(C3CCCN(Cc4ccc(Cl)cc4)C3)ccnc2c1N(C)C (centres unmarked) [Example 141, 7-(1-(4-Chlorobenzyl)piperidin-3-yl)-N,N,2-trimethylpyrazolo[1,5-a]pyrimidin-3-amine] | < 500 | > 5000
9 | Cc1nn2c(C3CCCN(Cc4ccccc4)C3)ccnc2c1N(C)C (centres unmarked) [Example 142, 7-(1-Benzylpiperidin-3-yl)-N,N,2-trimethylpyrazolo[1,5-a]pyrimidin-3-amine] | > 1000 | > 5000
10 | Cc1nn2c(C3CCCN(Cc4ccccc4)C3)ccnc2c1N(C)Cc1ccccc1 (centres unmarked) [Example 143, N-Benzyl-7-(1-benzylpiperidin-3-yl)-N,2-dimethylpyrazolo[1,5-a]pyrimidin-3-amine] | 500 to 1000 | > 5000
11 | Cc1nn2c(C3CCCN(Cc4ccc(Cl)cc4)C3)ccnc2c1CNCc1ccccc1 (centres unmarked) [Example 144, N-Benzyl-1-(7-(1-(4-chlorobenzyl)piperidin-3-yl)-2-methylpyrazolo[1,5-a]pyrimidin-3-yl)methanamine] | < 500 | 500 to 5000
12 | Cc1nn2c(C3CCCN(Cc4ccc(Cl)cc4)C3)ccnc2c1CN(C)Cc1ccccc1 (centres unmarked) [Example 145, N-Benzyl-1-(7-(1-(4-chlorobenzyl)piperidin-3-yl)-2-methylpyrazolo[1,5-a]pyrimidin-3-yl)-N-methylmethanamine] | < 500 | 500 to 5000
13 | Cc1nn2c(C3CCCN(Cc4ccc(Cl)cc4)C3)ccnc2c1CNCc1ccc(F)cc1 (centres unmarked) [Example 146, 1-(7-(1-(4-Chlorobenzyl)piperidin-3-yl)-2-methylpyrazolo[1,5-a]pyrimidin-3-yl)-N-(4-fluorobenzyl)methanamine] | < 500 | 500 to 5000
14 | Cc1nn2c(C3CCCN(Cc4ccc(Cl)cc4)C3)ccnc2c1CNCc1ccc(CO)cc1 (centres unmarked) [Example 147, (4-((((7-(1-(4-Chlorobenzyl)piperidin-3-yl)-2-methylpyrazolo[1,5-a]pyrimidin-3-yl)methyl)amino)methyl)phenyl)methanol] | < 500 | > 5000
15 | Cc1nn2c(C3CCCN(Cc4ccc(Cl)cc4)C3)ccnc2c1CNCc1ccncc1 (centres unmarked) [Example 148, 1-(7-(1-(4-Chlorobenzyl)piperidin-3-yl)-2-methylpyrazolo[1,5-a]pyrimidin-3-yl)-N-(pyridin-4-ylmethyl)methanamine] | < 500 | 500 to 5000
16 | Cc1nn2c(C3CCCN(Cc4ccc(Cl)cc4)C3)ccnc2c1CNCc1cccs1 (centres unmarked) [Example 149, 1-(7-(1-(4-Chlorobenzyl)piperidin-3-yl)-2-methylpyrazolo[1,5-a]pyrimidin-3-yl)-N-(thiophen-2-ylmethyl)methanamine] | < 500 | 500 to 5000

Row | SMILES | Ki (Human σ1 receptor) [nM] | Ki [1] [nM]
17 | Cc1ccc(CNCc2c(C)nn3c(C4CCCN(Cc5ccc(Cl)cc5)C4)ccnc23)s1 (centres unmarked) [Example 150, 1-(7-(1-(4-Chlorobenzyl)piperidin-3-yl)-2-methylpyrazolo[1,5-a]pyrimidin-3-yl)-N-((5-methylthiophen-2-yl)methyl)methanamine] | < 500 | 500 to 5000
18 | Cc1nn2c(C3CCCN(Cc4ccc(Cl)cc4)C3)ccnc2c1CNCc1ccn(C)n1 (centres unmarked) [Example 151, 1-(7-(1-(4-Chlorobenzyl)piperidin-3-yl)-2-methylpyrazolo[1,5-a]pyrimidin-3-yl)-N-((1-methyl-1H-pyrazol-3-yl)methyl)methanamine] | < 500 | 500 to 5000
19 | Cc1nnc(CNCc2c(C)nn3c(C4CCCN(Cc5ccc(Cl)cc5)C4)ccnc23)o1 (centres unmarked) [Example 152, 1-(7-(1-(4-Chlorobenzyl)piperidin-3-yl)-2-methylpyrazolo[1,5-a]pyrimidin-3-yl)-N-((5-methyl-1,3,4-oxadiazol-2-yl)methyl)methanamine] | 500 to 1000 | > 5000
20 | Cc1nn2c(C3CCCN(Cc4ccc(Cl)cc4)C3)ccnc2c1CNCCc1ccccc1 (centres unmarked) [Example 153, N-((7-(1-(4-Chlorobenzyl)piperidin-3-yl)-2-methylpyrazolo[1,5-a]pyrimidin-3-yl)methyl)-2-phenylethan-1-amine] | < 500 | 500 to 5000
21 | COc1ccc(CCNCc2c(C)nn3c(C4CCCN(Cc5ccc(Cl)cc5)C4)ccnc23)cc1 (centres unmarked) [Example 154, N-((7-(1-(4-Chlorobenzyl)piperidin-3-yl)-2-methylpyrazolo[1,5-a]pyrimidin-3-yl)methyl)-2-(4-methoxyphenyl)ethan-1-amine] | 500 to 1000 | 500 to 5000
22 | CCNCc1c(C)nn2c(C3CCCN(Cc4ccc(Cl)cc4)C3)ccnc12 (centres unmarked) [Example 155, N-((7-(1-(4-Chlorobenzyl)piperidin-3-yl)-2-methylpyrazolo[1,5-a]pyrimidin-3-yl)methyl)ethanamine] | < 500 | 500 to 5000
23 | Cc1nn2c(C3CCCN(Cc4ccc(Cl)cc4)C3)ccnc2c1CNCC(F)(F)F (centres unmarked) [Example 156, N-((7-(1-(4-Chlorobenzyl)piperidin-3-yl)-2-methylpyrazolo[1,5-a]pyrimidin-3-yl)methyl)-2,2,2-trifluoroethan-1-amine] | 500 to 1000 | > 5000
24 | Cc1nn2c(C3CCCN(Cc4ccc(Cl)cc4)C3)ccnc2c1CNCC1CC1 (centres unmarked) [Example 157, 1-(7-(1-(4-Chlorobenzyl)piperidin-3-yl)-2-methylpyrazolo[1,5-a]pyrimidin-3-yl)-N-(cyclopropylmethyl)methanamine] | < 500 | 500 to 5000
25 | Cc1nn2c(C3CCCN(Cc4ccc(Cl)cc4)C3)ccnc2c1CNCCO (centres unmarked) [Example 158, 2-(((7-(1-(4-Chlorobenzyl)piperidin-3-yl)-2-methylpyrazolo[1,5-a]pyrimidin-3-yl)methyl)amino)ethan-1-ol] | < 500 | 500 to 5000
26 | Cc1nn2c(C3CCCN(Cc4ccc(Cl)cc4)C3)ccnc2c1CNC(C)C (centres unmarked) [Example 159, N-((7-(1-(4-Chlorobenzyl)piperidin-3-yl)-2-methylpyrazolo[1,5-a]pyrimidin-3-yl)methyl)propan-2-amine] | < 500 | 500 to 5000
27 | Cc1nn2c(C3CCCN(Cc4ccc(Cl)cc4)C3)ccnc2c1CNCC(C)C (centres unmarked) [Example 160, N-((7-(1-(4-Chlorobenzyl)piperidin-3-yl)-2-methylpyrazolo[1,5-a]pyrimidin-3-yl)methyl)-2-methylpropan-1-amine] | < 500 | 500 to 5000
28 | Cc1nn2c(C3CCCN(Cc4ccc(Cl)cc4)C3)ccnc2c1CNCCC(C)C (centres unmarked) [Example 161, N-((7-(1-(4-Chlorobenzyl)piperidin-3-yl)-2-methylpyrazolo[1,5-a]pyrimidin-3-yl)methyl)-3-methylbutan-1-amine] | < 500 | 500 to 5000
29 | Cc1nn2c(C3CCCN(Cc4ccc(Cl)cc4)C3)ccnc2c1CNCCOC(C)C (centres unmarked) [Example 162, N-((7-(1-(4-Chlorobenzyl)piperidin-3-yl)-2-methylpyrazolo[1,5-a]pyrimidin-3-yl)methyl)-2-isopropoxyethan-1-amine] | < 500 | 500 to 5000
30 | COCCCCNCc1c(C)nn2c(C3CCCN(Cc4ccc(Cl)cc4)C3)ccnc12 (centres unmarked) [Example 163, N-((7-(1-(4-Chlorobenzyl)piperidin-3-yl)-2-methylpyrazolo[1,5-a]pyrimidin-3-yl)methyl)-4-methoxybutan-1-amine] | < 500 | < 500
31 | Cc1nn2c(C3CCCN(Cc4ccc(Cl)cc4)C3)ccnc2c1CN1C[C@@H](C)O[C@@H](C)C1 (stereo partly drawn) [Example 164, (2S,6R)-4-((7-(1-(4-Chlorobenzyl)piperidin-3-yl)-2-methylpyrazolo[1,5-a]pyrimidin-3-yl)methyl)-2,6-dimethylmorpholine] | 500 to 1000 | 500 to 5000
